Data as given in paper PMC6918900, “Concentration-Dependent Activity of Hydromethylthionine on Cognitive Decline and Brain Atrophy in Mild to Moderate Alzheimer’s Disease” (Journal of Alzheimer's Disease, 2019).
Like-named read-outs stand apart in the source and are kept apart here.

How the values were obtained:
Route of clearance = settings: in vivo
[1] = Population PK: parent MT steady state plasma Cmax,ss in Phase III patients; assay type: in vivo, human; settings: for % high Cmax (Cmax,ss > 0.373 ng/ml): LMTM 8 mg/day; for Cmax: human, plasma, oral, parent MT
Excerpt: Pharmacokinetic analyses were undertaken using plasma concentration data from patients who participated in either of two completed Phase III trials which have been described previously [[35, 36]]. In brief, the first (TRx-237-015) was a 15-month study which recruited 890 patients from 115 sites across 16 countries in EU, North America, Asia, and Russia. Patients had to be <90 years of age and have a diagnosis of mild to moderate probable AD according to National Institute of Aging (NIA) and Alzheimer’s Association (AA) criteria and a Mini-Mental State Examination (MMSE) score of 14–26 inclusive and with a Clinical Dementia Rating (CDR) total score of 1 or 2. The second study (TRx-237-005) was an 18-month trial which recruited 800 patients from 108 sites in Canada, United States, Australia, and Europe. Patients had to meet the same age and diagnosis criteria, except that they were required to have a MMSE score of 20–26 inclusive and a CDR total score of 0.5 or 1.0. Concomitant use of AChEIs or memantine (or both) was permitted in both studies provided this was at a stable dose for at least 18 weeks before randomization. Concomitant use of serotonergic antidepressant, antipsychotic (except clozapine or olanzapine), and sedative medications was also permitted at stable doses where clinically feasible. Patients were randomly assigned to receive LMTM at doses of 250, 150, or 8 mg/day in Study 015 and doses of 200 or 8 mg/day in Study TRx-237-005. Randomization in both studies was stratified according to geographical region, use of AD-labelled co-medications, and severity of AD. The co-primary outcomes in both studies were the Alzheimer’s Disease Assessment Scale–cognitive subscale, 11-item version (ADAS-cog11) and the Alzheimer’s Disease Co-operative Study–Activities of Daily Living, 23-item version (ADCS-ADL23) scale measured at baseline and every 3 months. MRI scans were undertaken at screening or baseline and at 3-month intervals. MRI acquisition protocol and parameters were standardized across sites and all data were centrally collected, quality-controlled, and analyzed blind by an imaging core lab (Bioclinica). Volumetric data were used to measure changes in whole brain volume (WBV, which provides a measure of the volume of grey and white matter), lateral ventricular volume (LVV), and other regional volumes including hippocampus, although only the global measures are reported in the present study. Baseline volumes were assessed using FreeSurfer 5.3, and volume change was assessed using Boundary Shift Integral and Tensor Based Morphometry for regional structures. Full details and study protocols for these two trials are available [[35, 36]].
Blood samples for assessment of parent MT, N-desmethyl MT, and total MT (sum of parent MT and a labile LMT conjugate) were collected from each patient on the first treatment visit (two samples: pre-dose and approximately 3.5 h after the dose) and at each subsequent on-treatment visit. The protocol specified that PK plasma sampling was to be conducted only at sites with adequate facilities (i.e., a refrigerated centrifuge and adequate capability to reliably freeze samples). Blinded analyses were conducted at the University of Aberdeen GLP Test Facility. MT levels in plasma were measured using liquid chromatography-tandem mass spectrometry. […] The method was validated for use in the Phase III studies over the range 0.2 to 10 ng/ml. Extrapolated MT concentrations were available below the lower limit of quantitation (but above the lower limit of detection) in approximately 35% of the Day 1 patients randomized to the 8 mg/day dose. The method was validated for long-term sample storage of 162 days at –20°C. […] Plasma samples from a total of 1,296 patients from the two Phase III studies in AD were available for analysis and, of these, 1,162 also had baseline and post-baseline efficacy outcome data available for analysis. […]

CN(C)c1ccc2c(c1)Sc1cc(N(C)C)ccc1N2 [LMTM, leuco-methylthioninium bis(hydromethanesulphonate)]
share of clearance via the kidneys (Route of clearance): 70%
patients with subthreshold plasma levels (below 0.2 ng/ml) after first dose on Day 1 ([1]; 8 mg/day): 35%
steady state plasma levels ([1]; 8 mg/day dose): 0.3 to 0.8 ng/mL
probability of achieving the Cmax,ss threshold of 0.373 ng/ml ([1]; 8 mg/day, creatinine clearance 20 ml/min/1.73 m^2): ~100%
probability of achieving the Cmax,ss threshold of 0.373 ng/ml ([1]; 8 mg/day, creatinine clearance 106 ml/min/1.73 m^2): essentially zero
% high Cmax (Cmax,ss > 0.373 ng/ml) ([1]; patients not using anti-inflammatory and antirheumatic products, non-steroids): 67.3%
% high Cmax (Cmax,ss > 0.373 ng/ml) ([1]; patients not using antihypertensive/antiarrhythmic drugs): 60.6%
% high Cmax (Cmax,ss > 0.373 ng/ml) ([1]; patients not using antithrombotic agents): 62.6%
% high Cmax (Cmax,ss > 0.373 ng/ml) ([1]; patients not using blood glucose lowering drugs, excluding insulins): 65.6%
% high Cmax (Cmax,ss > 0.373 ng/ml) ([1]; patients not using drugs for peptic ulcer and gastro-esophageal reflux disease): 65.3%
% high Cmax (Cmax,ss > 0.373 ng/ml) ([1]; patients not using lipid modifying agents): 66.0%
% high Cmax (Cmax,ss > 0.373 ng/ml) ([1]; patients not using thyroid preparations): 64.3%
% high Cmax (Cmax,ss > 0.373 ng/ml) ([1]; patients using anti-inflammatory and antirheumatic products, non-steroids): 59.5%
% high Cmax (Cmax,ss > 0.373 ng/ml) ([1]; patients using antithrombotic agents): 70.3%
% high Cmax (Cmax,ss > 0.373 ng/ml) ([1]; patients using blood glucose lowering drugs, excluding insulins): 66.2%
% high Cmax (Cmax,ss > 0.373 ng/ml) ([1]; patients using drugs for peptic ulcer and gastro-esophageal reflux disease): 66.9%
% high Cmax (Cmax,ss > 0.373 ng/ml) ([1]; patients using lipid modifying agents): 65.2%
% high Cmax (Cmax,ss > 0.373 ng/ml) ([1]; patients using thyroid preparations): 74.1%
estimated mean plasma concentration ([1]; expected at 16 mg/day): 0.88 ± 0.18 ng/mL
plasma concentrations ([1]; high doses (150–250 mg/day)): 4 to 21 ng/mL
Cmax ([1]; 8 mg/day, 8 mg/day – Group 1, read-out: Cmax,ss Mean (SD)): 0.334 ng/mL
Cmax ([1]; 8 mg/day, 8 mg/day – Group 1, read-out: Cmax,ss Range): 0.257 to 0.373 ng/mL
Cmax ([1]; 8 mg/day, 8 mg/day – Group 2, read-out: Cmax,ss Range): 0.373 to 0.414 ng/mL
Cmax ([1]; 8 mg/day, 8 mg/day – Group 3, read-out: Cmax,ss Mean (SD)): 0.449 ng/mL
Cmax ([1]; 8 mg/day, 8 mg/day – Group 3, read-out: Cmax,ss Range): 0.415 to 0.478 ng/mL
Cmax ([1]; 8 mg/day, 8 mg/day – Group 4, read-out: Cmax,ss Mean (SD)): 0.565 ng/mL
Cmax ([1]; 8 mg/day, 8 mg/day – Group 4, read-out: Cmax,ss Range): 0.479 to 0.812 ng/mL
Cmax ([1]; 150 mg/day, 150 mg/day, read-out: Cmax,ss Mean (SD)): 7.82 ng/mL
Cmax ([1]; 150 mg/day, 150 mg/day, read-out: Cmax,ss Range): 5.1 to 18.6 ng/mL
Cmax ([1]; 200 mg/day, 200 mg/day, read-out: Cmax,ss Mean (SD)): 10.1 ng/mL
Cmax ([1]; 200 mg/day, 200 mg/day, read-out: Cmax,ss Range): 6.56 to 21.3 ng/mL
Cmax ([1]; 250 mg/day, 250 mg/day, read-out: Cmax,ss Mean (SD)): 12.6 ng/mL
Cmax ([1]; 250 mg/day, 250 mg/day, read-out: Cmax,ss Range): 8.83 to 21.2 ng/mL
Cmax ([1]; 8 mg/day – Group 2, read-out: Cmax,ss Mean (SD)): 0.393 ng/mL
